What was measured:
Format in all cases: biochemical
[1] = molecular target: T1, cathepsin L isolated from human liver (Homo sapiens, UniProt P07711); assay: Cathepsin L kinetic fluorescence enzyme inhibition assay; conditions: selectivity ratio versus calpain I
T1 construct: cathepsin L—isolated from human liver; purchased Calbiochem 219402; host or cells: human liver (tissue isolate)
Method in brief: (§1)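 Kinetic fluorescence (ex 390/em 460 nm) at room temperature in 50 mM MES, 2 mM EDTA, 0.05% Brij 35, 2.5 mM L-cysteine, pH 6.0. Cathepsin B (liver, 0.25 nM) with 100 μM Z-Phe-Arg-AMC; cathepsin L (liver, 1 nM) with 2 μM Z-Phe-Arg-AMC; recombinant E. coli cathepsin S (0.5 nM) with 20 μM Z-Val-Val-Arg-AMC. Ki via Cheng-Prusoff.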

[2] = molecular target: T2, cathepsin B isolated from human liver (Homo sapiens, UniProt P07858); assay: Cathepsin B kinetic fluorescence enzyme inhibition assay; conditions: selectivity ratio versus calpain I
T2 construct: cathepsin B—isolated from human liver; purchased Calbiochem 219362; host or cells: human liver (tissue isolate)
Method in brief: as §1

[3] = molecular target: T3, recombinant human cathepsin S (Homo sapiens, UniProt P25774); assay: Cathepsin S kinetic fluorescence enzyme inhibition assay; conditions: selectivity ratio versus calpain I
T3 construct: purchased Calbiochem 219343; host or cells: E. coli
T3 sequence (P25774 115-331): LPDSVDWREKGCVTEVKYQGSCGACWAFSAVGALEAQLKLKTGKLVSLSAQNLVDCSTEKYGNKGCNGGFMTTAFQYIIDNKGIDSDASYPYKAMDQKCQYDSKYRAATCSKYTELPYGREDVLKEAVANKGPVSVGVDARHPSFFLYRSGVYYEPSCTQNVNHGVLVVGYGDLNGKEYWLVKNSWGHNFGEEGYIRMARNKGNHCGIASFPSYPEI
Method in brief: as §1

[4] = molecular target: T4, calpain-I isolated from human erythrocytes (Homo sapiens, UniProt P07384); assay: Calpain I kinetic fluorescence enzyme inhibition assay; conditions: apparent Ki from IC50 by Cheng-Prussoff; average of 2 to 4 dose-effect plots
T4 construct: calpain-I—isolated from human erythrocytes; purchased Calbiochem 208713; host or cells: human erythrocytes (tissue isolate)
T4 sequence (P07384 1-714): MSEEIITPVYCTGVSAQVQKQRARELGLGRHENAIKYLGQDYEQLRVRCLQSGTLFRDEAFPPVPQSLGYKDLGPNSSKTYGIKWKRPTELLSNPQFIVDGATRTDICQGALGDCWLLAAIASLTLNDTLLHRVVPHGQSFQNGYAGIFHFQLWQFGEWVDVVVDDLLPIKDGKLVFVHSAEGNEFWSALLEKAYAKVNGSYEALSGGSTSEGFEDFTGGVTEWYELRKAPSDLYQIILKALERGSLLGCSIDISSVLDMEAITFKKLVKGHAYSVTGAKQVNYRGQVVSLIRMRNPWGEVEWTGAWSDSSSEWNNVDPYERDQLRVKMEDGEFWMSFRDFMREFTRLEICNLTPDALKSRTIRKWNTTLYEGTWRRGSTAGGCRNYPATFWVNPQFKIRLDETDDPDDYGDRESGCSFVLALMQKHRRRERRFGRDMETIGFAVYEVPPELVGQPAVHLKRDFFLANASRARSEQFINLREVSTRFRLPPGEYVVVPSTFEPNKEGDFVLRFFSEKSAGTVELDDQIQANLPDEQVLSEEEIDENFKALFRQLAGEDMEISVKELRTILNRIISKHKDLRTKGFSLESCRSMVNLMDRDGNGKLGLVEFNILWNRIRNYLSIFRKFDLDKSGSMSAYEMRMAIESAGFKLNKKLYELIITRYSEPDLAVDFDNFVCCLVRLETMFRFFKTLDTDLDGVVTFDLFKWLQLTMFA
T4 sequence (P04632 1-268 partner): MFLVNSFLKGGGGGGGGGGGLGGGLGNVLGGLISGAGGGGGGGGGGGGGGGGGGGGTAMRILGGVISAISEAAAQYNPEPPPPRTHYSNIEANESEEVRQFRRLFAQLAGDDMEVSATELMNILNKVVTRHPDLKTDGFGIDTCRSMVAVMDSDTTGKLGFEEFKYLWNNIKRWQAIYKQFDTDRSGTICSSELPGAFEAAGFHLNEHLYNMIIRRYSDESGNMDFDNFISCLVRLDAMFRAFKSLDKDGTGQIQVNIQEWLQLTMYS

[5] = molecular target: T5, cathepsin K activated from recombinant human procathepsin K (Homo sapiens, UniProt P43235); assay: Cathepsin K kinetic fluorescence enzyme inhibition assay; conditions: selectivity ratio versus calpain I
T5 construct: purchased Calbiochem 342001; host or cells: E. coli
T5 sequence (P43235 115-329): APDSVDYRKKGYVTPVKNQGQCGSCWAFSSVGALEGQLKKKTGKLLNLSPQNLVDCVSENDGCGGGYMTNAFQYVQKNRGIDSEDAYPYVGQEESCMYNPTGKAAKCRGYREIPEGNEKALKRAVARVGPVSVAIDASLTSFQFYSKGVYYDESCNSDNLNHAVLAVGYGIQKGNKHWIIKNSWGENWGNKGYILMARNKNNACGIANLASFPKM

T1 sequence (P07711 114-333): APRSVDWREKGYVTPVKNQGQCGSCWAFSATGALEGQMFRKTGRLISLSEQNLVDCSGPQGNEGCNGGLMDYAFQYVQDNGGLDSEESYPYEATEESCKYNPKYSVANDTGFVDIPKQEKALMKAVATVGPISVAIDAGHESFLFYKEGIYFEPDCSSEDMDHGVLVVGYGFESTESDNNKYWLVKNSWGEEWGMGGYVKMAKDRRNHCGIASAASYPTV

| SMILES | Sel cat. L (Ki(cathepsin L)/Ki(calpain) ratio) [1] | Sel cat. B (Ki(cathepsin B)/Ki(calpain) ratio) [2] | Sel cat. S (Ki(cathepsin S)/Ki(calpain) ratio) [3] | Ki [4] [nM] | Sel cat. K (Ki(cathepsin K)/Ki(calpain) ratio) [5] |
| --- | --- | --- | --- | --- | --- |
| COc1ccc(CC(NC(=O)c2cccnc2-n2ccc(-c3ccc(F)cc3Cl)n2)C(=O)C(N)=O)cc1 (stereo not shown) [Example 111, N-(3-Amino-1-{[4-(methyloxy)phenyl]methyl}-2,3-dioxopropyl)-2-[3-(2-chloro-4-fluorophenyl)-1H-pyrazol-1-yl]pyridine-3-carboxamide] | ++ (Ki(cathepsin L)/Ki(calpain) ratio of ≧50) | ++ (Ki(cathepsin B)/Ki(calpain) ratio of ≧30) | ++ (Ki(cathepsin S)/Ki(calpain) ratio of ≧100) | ≤ 40 | ++ (Ki(cathepsin K)/Ki(calpain) ratio of ≧30) |
| NC(=O)C(=O)C(Cc1ccccc1)NC(=O)c1cccnc1-n1ccc(-c2cc(Cl)ccc2Cl)n1 (stereo not shown) [Example 112, N-[3-Amino-2,3-dioxo-1-(phenylmethyl)propyl]-2-[3-(2,5-dichlorophenyl)-1H-pyrazol-1-yl]pyridine-3-carboxamide] | ++ (Ki(cathepsin L)/Ki(calpain) ratio of ≧50) | ++ (Ki(cathepsin B)/Ki(calpain) ratio of ≧30) | ++ (Ki(cathepsin S)/Ki(calpain) ratio of ≧100) | ≤ 40 | ++ (Ki(cathepsin K)/Ki(calpain) ratio of ≧30) |
| NC(=O)C(=O)C(Cc1ccc(F)cc1)NC(=O)c1cccnc1-n1ccc(-c2ccc(Cl)cc2Cl)n1 (stereo not shown) [Example 114, N-{-3-Amino-1-[(4-fluorophenyl)methyl]-2,3-dioxopropyl}-2-[3-(2,4-dichlorophenyl)-1H-pyrazol-1-yl]pyridine-3-carboxamide] | ++ (Ki(cathepsin L)/Ki(calpain) ratio of ≧50) | ++ (Ki(cathepsin B)/Ki(calpain) ratio of ≧30) | ++ (Ki(cathepsin S)/Ki(calpain) ratio of ≧100) | 40 to 100 | ++ (Ki(cathepsin K)/Ki(calpain) ratio of ≧30) |
| NC(=O)C(=O)C(Cc1ccccc1)NC(=O)c1cccnc1-n1ccc(-c2cccc(Cl)c2Cl)n1 (stereo not shown) [Example 115, N-[3-Amino-2,3-dioxo-1-(phenylmethyl)propyl]-2-[3-(2,3-dichlorophenyl)-1H-pyrazol-1-yl]pyridine-3-carboxamide] | ++ (Ki(cathepsin L)/Ki(calpain) ratio of ≧50) | ++ (Ki(cathepsin B)/Ki(calpain) ratio of ≧30) | ++ (Ki(cathepsin S)/Ki(calpain) ratio of ≧100) | ≤ 40 | ++ (Ki(cathepsin K)/Ki(calpain) ratio of ≧30) |
| NC(=O)C(=O)C(Cc1ccccc1)NC(=O)c1cccnc1-n1ccc(-c2c(F)cc(F)cc2F)n1 (stereo not shown) [Example 116, N-[3-Amino-2,3-dioxo-1-(phenylmethyl)propyl]-2-[3-(2,4,6-trifluorophenyl)-1H-pyrazol-1-yl]pyridine-3-carboxamide] | ++ (Ki(cathepsin L)/Ki(calpain) ratio of ≧50) | ++ (Ki(cathepsin B)/Ki(calpain) ratio of ≧30) | ++ (Ki(cathepsin S)/Ki(calpain) ratio of ≧100) | ≤ 40 | + (10≦Ki(cathepsin K)/Ki(calpain)<30) |
| COc1ccc(-c2ccn(-c3ncccc3C(=O)NC(Cc3ccccc3)C(=O)C(N)=O)n2)c(OC)c1 (stereo not shown) [Example 117, N-[3-Amino-2,3-dioxo-1-(phenylmethyl)propyl]-2-{3-[2,4-bis(methyloxy)phenyl]-1H-pyrazol-1-yl}pyridine-3-carboxamide] | ++ (Ki(cathepsin L)/Ki(calpain) ratio of ≧50) | ++ (Ki(cathepsin B)/Ki(calpain) ratio of ≧30) | ++ (Ki(cathepsin S)/Ki(calpain) ratio of ≧100) | ≤ 40 | ++ (Ki(cathepsin K)/Ki(calpain) ratio of ≧30) |
| NC(=O)C(=O)C(Cc1ccccc1)NC(=O)c1cccnc1-n1ccc(-c2ccc3c(c2)OC(F)(F)O3)n1 (stereo not shown) [Example 118, N-[3-Amino-2,3-dioxo-1-(phenylmethyl)propyl]-2-[3-(2,2-difluoro-1,3-benzodioxol-5-yl)-1H-pyrazol-1-yl]pyridine-3-carboxamide] | ++ (Ki(cathepsin L)/Ki(calpain) ratio of ≧50) | ++ (Ki(cathepsin B)/Ki(calpain) ratio of ≧30) | ++ (Ki(cathepsin S)/Ki(calpain) ratio of ≧100) | ≤ 40 | + (10≦Ki(cathepsin K)/Ki(calpain)<30) |
| NC(=O)C(=O)C(Cc1ccccc1)NC(=O)c1cccnc1-n1ccc(-c2cccc3c2OC(F)(F)O3)n1 (stereo not shown) [Example 119, N-[3-Amino-2,3-dioxo-1-(phenylmethyl)propyl]-2-[3-(2,2-difluoro-1,3-benzodioxol-4-yl)-1H-pyrazol-1-yl]pyridine-3-carboxamide] | ++ (Ki(cathepsin L)/Ki(calpain) ratio of ≧50) | ++ (Ki(cathepsin B)/Ki(calpain) ratio of ≧30) | ++ (Ki(cathepsin S)/Ki(calpain) ratio of ≧100) | ≤ 40 | ++ (Ki(cathepsin K)/Ki(calpain) ratio of ≧30) |
| NC(=O)C(=O)C(Cc1ccccc1)NC(=O)c1cccnc1-n1ccc(-c2c(F)ccc(Cl)c2Cl)n1 (stereo not shown) [Example 120, N-[3-Amino-2,3-dioxo-1-(phenylmethyl)propyl]-2-[3-(2,3-dichloro-6-fluorophenyl)-1H-pyrazol-1-yl]pyridine-3-carboxamide] | + (30≦Ki(cathepsin L)/Ki(calpain)<50) | ++ (Ki(cathepsin B)/Ki(calpain) ratio of ≧30) | ++ (Ki(cathepsin S)/Ki(calpain) ratio of ≧100) | ≤ 40 | ++ (Ki(cathepsin K)/Ki(calpain) ratio of ≧30) |
| COc1c(C)cc(C)cc1-c1ccn(-c2ncccc2C(=O)NC(Cc2ccccc2)C(=O)C(N)=O)n1 (stereo not shown) [Example 121, N-[3-Amino-2,3-dioxo-1-(phenylmethyl)propyl]-2-{3-[3,5-dimethyl-2-(methyloxy)phenyl]-1H-pyrazol-1-yl}pyridine-3-carboxamide] | ++ (Ki(cathepsin L)/Ki(calpain) ratio of ≧50) | ++ (Ki(cathepsin B)/Ki(calpain) ratio of ≧30) | ++ (Ki(cathepsin S)/Ki(calpain) ratio of ≧100) | ≤ 40 | ++ (Ki(cathepsin K)/Ki(calpain) ratio of ≧30) |
| NC(=O)C(=O)C(Cc1ccc(F)cc1)NC(=O)c1cccnc1-n1ccc(-c2ccccc2)n1 (stereo not shown) [Example 123, N-{3-Amino-1-[(4-fluorophenyl)methyl]-2,3-dioxopropyl}-2-(3-phenyl-1H-pyrazol-1-yl)pyridine-3-carboxamide] | ++ (Ki(cathepsin L)/Ki(calpain) ratio of ≧50) | ++ (Ki(cathepsin B)/Ki(calpain) ratio of ≧30) | ++ (Ki(cathepsin S)/Ki(calpain) ratio of ≧100) | ≤ 40 | ++ (Ki(cathepsin K)/Ki(calpain) ratio of ≧30) |
